Laboratory results published in patent publication US8530652B2, “Pyrrolopyrazoles, potent kinase inhibitors” (Agouron Pharmaceuticals, Inc., priority 2005, dated 2013).

How the values were obtained:
[1] = molecular target: PAK4 kinase activity in whole cells (TR-293-KDG, modified HEK 293 overexpressing GEF-H1b and PAK4 KD) (Homo sapiens (Human), UniProt O96013); test: PAK4 cellular assay: sandwich ELISA of PAK4-dependent phosphorylation of GEF-H1b in TR-293-KDG cells; assay type: cell-based; settings: doxycycline-induced, 3-hour exposure, phospho-GEF-H1b ELISA
Chain of PAK4 kinase activity in whole cells (TR-293-KDG, modified HEK 293 overexpressing GEF-H1b and PAK4 KD) (O96013 321-572): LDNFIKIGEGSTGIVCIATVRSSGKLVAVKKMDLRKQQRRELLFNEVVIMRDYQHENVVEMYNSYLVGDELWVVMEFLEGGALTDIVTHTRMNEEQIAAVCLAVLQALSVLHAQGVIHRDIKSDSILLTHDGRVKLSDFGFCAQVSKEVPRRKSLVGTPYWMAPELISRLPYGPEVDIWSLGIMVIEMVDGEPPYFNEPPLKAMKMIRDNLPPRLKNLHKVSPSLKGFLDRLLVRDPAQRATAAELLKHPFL
Excerpt: A sandwich ELISA method was used to measure the PAK4 kinase activity in whole cells. The level of PAK4-dependent phosphorylation of GEF-H1b can be determined by monitoring the binding of a phosphospecific antibody to GEF-H1b. A modified HEK 293 cell line is used in the bioassay and it has been engineered to overexpress both GEF-H1b and the kinase domain (KD) of PAK4. The KD of PAK4 is inducible in this cell line by tetracycline (Trex system, Invitrogen). The name of this cell line has been designated TR-293-KDG. To establish a phosphorylation event on GEF-H1, cells are induced with doxycycline to express the PAK4 KD. […] Candidate substance effect is measured as the ability to block this phosphorylation event.
ELISA plate was prepared by pre-coating the plates with a capture antibody (α-HA-tag mouse monoclonal antibody), blocked with BSA, and washed in 0.1% tween 20 in tris-buffered saline (TBST). Tissue culture plates (precoated with poly-D-lysine) were seeded with TR-293-KDG cells. The TR-293-KDG Cells were induced to express the PAK4 KD with doxycycline overnight and subsequently & concomitantly treated with candidate substances or diluent for an additional 3-hour, continuous exposure. Cells were then lysed with a modified RIPA buffer supplemented with protease inhibitors. The fresh whole cell lysates were then added to the ELISA plate for 2-hours. Between all subsequent steps plates were washed 4 times with TBST. Detection antibody (recognizing the phospho-specific eptitope on GEF-H1b) was added for 1 hour, followed by addition of an enzyme linked goat α-rabbit secondary antibody for 45 minutes. […] EC50 values were calculated by sigmoid curve fitting using a four-parameter analysis.

[2] = molecular target: PAK4 kinase domain (PAK4 KD) (Homo sapiens (Human), UniProt O96013); test: PAK4 kinase domain enzymatic assay (coupled PK/LDH, NADH absorbance at 340 nm); assay type: biochemical; settings: PAK4 kinase domain, 25 nM PAK4 KD, 0.04 mM ATP, pH 7.5
Chain of PAK4 kinase domain (PAK4 KD) (O96013 321-572): as above
Excerpt: Cloning, expression, and purification of recombinant PAK4 Kinase domain (PAK4 KD): The cDNA coding for PAK4 was amplified from the EST clone (#12) (purchased from Research Genetics) by using PCR. […] The PCR amplified product was cloned into Topo vector (Invitrogen Inc.), and verified by DNA sequencing. PAK4 KD was then subcloned into expression plasmid pET28a(+), pET24a(+), or pGST4.5. The recombinant plasmids containing PAK4 KD was transformed into BL21(DE3) cells for recombinant protein expression. […] The cells were then harvested and lyzed for protein purification. Ni-NTA column (pET28a(+), pET24a(+)) and glutathione column (pGST4.5) were used for the purification.
PAK4 kinase domain enzymatic assay conditions: the enzymatic activity of PAK4 KD was measured by its ability to catalyze the transfer of a phosphate residue from a nucleoside triphosphate to an amino acid side chain of a commercially available peptide (amino acid sequence […]). The conversion of ATP to ADP accompanies the catalytic reaction. The PAK4 KD catalyzed production of ADP from ATP was coupled to the oxidation of NADH through the activities of pyruvate kinase (PK) and lactate dehydrogenase (LDH). The conversion of NADH to NAD^+ is monitored by the decrease in absorbance at 340 nm (e340=6.22 cm^−1mM^−1) using a Molecular Devices SPECTRAMAX 190 in conjunction with the Biomec FX. Typical reaction solutions contain 2 mM phosphoenolpyruvate, 0.35 mM NADH, 10 mM MgCl2, 1 mM DTT, 0.4 mM peptide ([…]) 0.04 mM ATP, 1 units/mL PK, 1 units/mL LDH, 0.01% Tween 20 in 50 mM HEPES, pH 7.5. […] The PAK KD Ki of each compound of the invention (the inhibitor) was calculated based on multiple of Percent Inhibition numbers of the inhibitor at different inhibitor concentrations. The peptide (amino sequence […]) was purchased from American Peptide Company. NADH, MgCl2, HEPES, DTT, ATP and PK/LDH were purchased from Sigma. Tween 20 was purchased from Calbiochem.

SMILES | EC50 [1] [nM] | Ki [2] [nM]
CN(C)C[C@@H](NC(=O)N1Cc2c(Nc3ccnc(C(F)(F)F)n3)n[nH]c2C1(C)C)c1ccccc1 [Example 55, N-[(1S)-2-(dimethylamino)-1-phenylethyl]-6,6-dimethyl-3-{[2-(trifluoromethyl)pyrimidin-4-yl]amino}-4,6-dihydropyrrolo[3,4-c]pyrazole-5(1H)-carboxamide] | > 4000 | 
CC1(C)c2[nH]nc(Nc3ncnc4sccc34)c2CN1C(=O)N[C@@H]1C[C@H]1c1ccccc1 [Example 50, 6,6-dimethyl-N-[(1R,2S)-2-phenylcyclopropyl]-3-(thieno[2,3-d]pyrimidin-4-ylamino)-4,6-dihydropyrrolo[3,4-c]pyrazole-5(1H)-carboxamide] | 340 | 16
CN(C)c1nc(Nc2n[nH]c3c2CN(C(=O)NC2C[C@@H]2c2ccccc2)C3(C)C)nc(N2CCC[C@H]2CO)n1 (stereo partly drawn) [Example 23, 3-({4-(dimethylamino)-6-[(2S)-2-(hydroxymethyl)pyrrolidin-1-yl]-1,3,5-triazin-2-yl}amino)-6,6-dimethyl-N-[trans-2-phenylcyclopropyl]-4,6-dihydropyrrolo[3,4-c]pyrazole-5(1H)-carboxamide] | > 4000 | 140
CN(C)C[C@@H](NC(=O)N1Cc2c(Nc3ncnc4ccsc34)n[nH]c2C1(C)C)c1ccccc1 [Example 5, N-[(1S)-2-(dimethylamino)-1-phenylethyl]-6,6-dimethyl-3-(thieno[3,2-d]pyrimidin-4-ylamino)-4,6-dihydropyrrolo[3,4-c]pyrazole-5(1H)-carboxamide] | 87 | 220
CN(C)c1nc(Cl)nc(Nc2n[nH]c3c2CN(C(=O)N[C@@H]2C[C@H]2c2ccccc2)C3(C)C)n1 (relative stereo) [Example 15, 3-{[4-chloro-6-(dimethylamino)-1,3,5-triazin-2-yl]amino}-6,6-dimethyl-N-[trans-2-phenylcyclopropyl]-4,6-dihydropyrrolo [3,4-c]pyrazole-5(1H)-carboxamide] | 500 | 90
CN(C)C[C@@H](OC(=O)N1Cc2c(Nc3ncnc4c3ncn4C)n[nH]c2C1(C)C)c1ccccc1 [Example 78, (1S)-2-(dimethylamino)-1-phenylethyl 6,6-dimethyl-3-[(9-methyl-9H-purin-6-yl)amino]-4,6-dihydropyrrolo[3,4-c]pyrazole-5(1H)-carboxylate] | > 4000 | 330
CC1(C)c2[nH]nc(Nc3ccnc(C#N)n3)c2CN1C(=O)N[C@@H]1C[C@H]1c1ccccc1 (relative stereo) [Example 33, 3-[(2-cyanopyrimidin-4-yl)amino]-6,6-dimethyl-N-[trans-2-phenylcyclopropyl]-4,6-dihydropyrrolo[3,4-c]pyrazole-5(1H)-carboxamide] | 618 | 47
CC1(C)c2[nH]nc(Nc3ncnc4sccc34)c2CN1C(=O)N[C@@H]1C[C@H]1c1ccccc1 (relative stereo) [Example 42, 6,6-dimethyl-N-[trans-2-phenylcyclopropyl]-3-(thieno[2,3-d]pyrimidin-4-ylamino)-4,6-dihydropyrrolo[3,4-c]pyrazole-5(1H)-carboxamide] | 610 | 94
CC1(C)c2[nH]nc(Nc3ncnc4ccsc34)c2CN1C(=O)N[C@H]1C[C@@H]1c1ccccc1 (relative stereo) [Example 1, 6,6-dimethyl-N-[trans-2-phenylcyclopropyl]-3-(thieno[3,2-d]pyrimidin-4-ylamino)-4,6-dihydropyrrolo[3,4-c]pyrazole-5(1H)-carboxamide] | > 2000 | 41
CN(C)C[C@@H](NC(=O)N1Cc2c(Nc3ccnc(C#N)n3)n[nH]c2C1(C)C)c1ccccc1 [Example 60, 3-[(2-cyanopyrimidin-4-yl)amino]-N-[(1S)-2-(dimethylamino)-1-phenylethyl]-6,6-dimethyl-4,6-dihydropyrrolo[3,4-c]pyrazole-5(1H)-carboxamide] | < 3.9 | 40
CN(C)C[C@@H](OC(=O)N1Cc2c(Nc3ncnc4ccsc34)n[nH]c2C1(C)C)c1ccccc1 [Example 68, (1S)-2-(dimethylamino)-1-phenylethyl 6,6-dimethyl-3-(thieno[3,2-d]pyrimidin-4-ylamino)-4,6-dihydropyrrolo[3,4-c]pyrazole-5(1H)-carboxylate] | 20 | 6.7
Cc1nc(Nc2n[nH]c3c2CN(C(=O)O[C@H](CN(C)C)c2ccccc2)C3(C)C)c2sccc2n1 [Example 73, (1S)-2-(dimethylamino)-1-phenylethyl 6,6-dimethyl-3-[(2-methylthieno[3,2-d]pyrimidin-4-yl)amino]-4,6-dihydropyrrolo[3,4-c]pyrazole-5(1H)-carboxylate] | < 3.9 | 1.6
Cn1cnc2c(Nc3n[nH]c4c3CN(C(=O)N[C@@H]3C[C@H]3c3ccccc3)C4(C)C)ncnc21 (relative stereo) [Example 36, 6,6-dimethyl-3-[(9-methyl-9H-purin-6-yl)amino]-N-[trans-2-phenylcyclopropyl]-4,6-dihydropyrrolo[3,4-c]pyrazole-5(1H)-carboxamide] | > 4000 | 

More lines, now with the values ahead:

EC50 [1] [nM] | Ki [2] [nM] | SMILES
< 3.9 | 39 | COc1ncc(F)c(Nc2n[nH]c3c2CN(C(=O)O[C@H](CN(C)C)c2ccccc2)C3(C)C)n1 [Example 79, (1S)-2-(dimethylamino)-1-phenylethyl 3-[(5-fluoro-2-methoxypyrimidin-4-yl)amino]-6,6-dimethyl-4,6-dihydropyrrolo[3,4-c]pyrazole-5(1H)-carboxylate]
67.1 | 680 | Cc1nccc(Nc2n[nH]c3c2CN(C(=O)N[C@H](CN(C)C)c2ccccc2)C3(C)C)n1 [Example 65, N-[(1S)-2-(dimethylamino)-1-phenylethyl]-6,6-dimethyl-3-[(2-methylpyrimidin-4-yl)amino]-4,6-dihydropyrrolo[3,4-c]pyrazole-5(1H)-carboxamide]
15 | 15 | Cc1cc2c(Nc3n[nH]c4c3CN(C(=O)N[C@H](CN(C)C)c3ccccc3)C4(C)C)ncnc2s1 [Example 62, N-[(1S)-2-(dimethylamino)-1-phenylethyl]-6,6-dimethyl-3-[(6-methylthieno[2,3-d]pyrimidin-4-yl)amino]-4,6-dihydropyrrolo[3,4-c]pyrazole-5(1H)-carboxamide]
> 4000 | 87 | CCCOc1nc(Cl)nc(Nc2n[nH]c3c2CN(C(=O)N[C@@H]2C[C@H]2c2ccccc2)C3(C)C)n1 (relative stereo) [Example 7, 3-[(4-chloro-6-propoxy-1,3,5-triazin-2-yl)amino]-6,6-dimethyl-N-[trans-2-phenylcyclopropyl]-4,6-dihydropyrrolo[3,4-c]pyrazole-5(1H)-carboxamide]
69 | 93 | Cc1ncnc(Nc2n[nH]c3c2CN(C(=O)O[C@H](CN(C)C)c2ccccc2)C3(C)C)c1F [Example 77, (1S)-2-(dimethylamino)-1-phenylethyl 3-[(5-fluoro-6-methylpyrimidin-4-yl)amino]-6,6-dimethyl-4,6-dihydropyrrolo[3,4-c]pyrazole-5(1H)-carboxylate]
> 4000 |  | Cc1nccc(Nc2n[nH]c3c2CN(C(=O)N[C@@H]2C[C@H]2c2ccccc2)C3(C)C)n1 (relative stereo) [Example 39, 6,6-dimethyl-3-[(2-methylpyrimidin-4-yl)amino]-N-[trans-2-phenylcyclopropyl]-4,6-dihydropyrrolo[3,4-c]pyrazole-5(1H)-carboxamide]
